Test results as given in ChEMBL document CHEMBL1152761, “Synthesis of novel substituted pyrazole-5-carbohydrazide hydrazone derivatives and discovery of a potent apoptosis inducer in A549 lung cancer cells” (Bioorg Med Chem, 2009).
Active and inactive are the calls of the source. No cut-off for these calls is given here.

What was measured:
Format in all cases: functional, cell-based
A549 [1] = assay: Growth inhibition of human A549 cells after 48 hrs by MTT assay; conditions: for IC50: A549, 48 h
A549 [2] = assay: Induction of necrosis in human A549 cells assessed as LDH release at 0.5 uM after 24 to 48 hrs
A549 [3] = assay: Induction of apoptosis in human A549 cells assessed as cell shrinkage like morphological changes at 1 uM after 48 hrs by light microscopy
A549 [4] = assay: Induction of necrosis in human A549 cells assessed as LDH release at 0.1 uM after 24 to 48 hrs
A549 [5] = assay: Induction of necrosis in human A549 cells assessed as LDH release at 1 uM after 24 to 48 hrs
A549 [6] = assay: Induction of apoptosis in human A549 cells assessed as DNA fragmentation after 48 hrs by acridine orange staining
A549 [7] = assay: Induction of apoptosis in human A549 cells assessed as DNA fragmentation after 48 hrs by TUNEL assay

IC50 (A549 [1]) [µM] | SMILES | Activity (A549 [1]) | other results
2.49 | C/C(=N\NC(=O)c1cc(-c2ccc(Cl)cc2)nn1Cc1ccc(C(C)(C)C)cc1)c1cc(C)ccc1O | Dose-dependent effect | –
3.17 | C/C(=N\NC(=O)c1cc(-c2ccccc2)nn1Cc1ccc(C(C)(C)C)cc1)c1cc(Cl)cc(Cl)c1O | Dose-dependent effect | –
2.77 | C/C(=N\NC(=O)c1cc(-c2ccccc2)nn1Cc1ccc(C(C)(C)C)cc1)c1cc(Cl)ccc1O | Dose-dependent effect | –
2.08 | COc1ccc(-c2cc(C(=O)N/N=C(\C)c3cc(Cl)cc(Cl)c3O)n(Cc3ccc(C(C)(C)C)cc3)n2)cc1 | Dose-dependent effect | –
6.1 | C/C(=N\NC(=O)c1cc(-c2ccccc2)nn1Cc1ccc(C(C)(C)C)cc1)c1cc(C)ccc1O | Dose-dependent effect | –
9.62 | COc1ccc(-c2cc(C(=O)N/N=C(\C)c3cc(Cl)ccc3O)n(Cc3ccc(C(C)(C)C)cc3)n2)cc1 | Dose-dependent effect | –
0.28 | C/C(=N\NC(=O)c1cc(-c2ccc(Cl)cc2)nn1Cc1ccc(C(C)(C)C)cc1)c1cc(Cl)ccc1O | Dose-dependent effect | Activity (A549 [2]): inactive; Activity (A549 [3]): Active; Activity (A549 [4]): inactive; Activity (A549 [5]): inactive; Activity (A549 [6]): Active; Activity (A549 [7]): Active
10.4 | COc1ccc(-c2cc(C(=O)N/N=C(\C)c3cc(C)ccc3O)n(Cc3ccc(C(C)(C)C)cc3)n2)cc1 | Dose-dependent effect | –
7.9 | C/C(=N\NC(=O)c1cc(-c2ccc(Cl)cc2)nn1Cc1ccc(C(C)(C)C)cc1)c1cc(Cl)cc(Cl)c1O | Dose-dependent effect | –
